Measurements taken from the METLIN SMRT retention time set (Domingo-Almenara et al. 2019).

test: gradient 5% acetonitrile 3 min, to 50% in 2 min, to 85% in 15 min, held 3 min, 100 µL/min; settings: column: Zorbax Extend-C18 2.1 x 50 mm; eluents: water / acetonitrile, 0.1% formic acid
Method in brief: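 The system's dead and dwell volumes were 40 μL and 900 μL, with a Zorbax Extend-C18 column (2.1 × 50 mm, 1.8 μm) run at 100 μL/min in water and acetonitrile containing 0.1% formic acid each. Pure standards were analyzed in mixtures of ~100 molecules by HPLC–quadrupole time-of-flight mass spectrometry in positive and negative ionization mode. Retention time was assigned from computationally picked, manually inspected adduct peaks.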

RP-LC retention time [s]	Compound
552	Cc1cc(C)nc(Nc2nc(C)c3cc4c(cc3n2)OCO4)n1
746	CCCNC(=O)c1nc(Nc2ccc(F)cc2)c2ccccc2n1
1220	Cc1ccc(-c2noc(Cn3c(=O)n(C(C)C)c(=O)c4ccccc43)n2)cc1C
699	CCc1ccccc1NC(=O)N(C)CC1CCOC1 (stereo not given)
989	CCn1cc(-c2nc(C)c(C(=O)NCc3cccc(C)c3)s2)c2cccnc21
551	CC(C)CCN1CCC(N(Cc2cccnc2)C2CCOCC2)CC1
785	CN1c2ccc(Cl)cc2C(=O)NC12CCN(C(=O)NCc1ccc(F)cc1)CC2
950	COc1ccc(-c2nc(CNC(=O)c3coc(-c4ccccc4)n3)no2)cc1
675	CCOCC(=O)N1CC(F)(F)C[C@H]1c1nc(COC)no1
825	CC1CCCN(C(=O)c2ccc(-n3cccn3)nc2)C1 (stereo not given)
789	O=C(Nc1cnn(-c2ncncc2N2CCOCC2)c1)c1cc2c(s1)CCCC2
719	CCCN(C)c1nccn2c(=O)n(CC(=O)Nc3ccc(C)cc3F)nc12
1020	Cc1ccc(S(=O)(=O)N2C(=O)CCC2C(=O)Nc2ccc(C)c(F)c2)cc1C (stereo not given)
1250	CCC(=O)N(CC)c1nc(-c2ccc(Br)cc2)cs1
738	O=C(NCCc1cccs1)C1CCN(C(=O)c2ncn3c2COC(c2ccccc2)C3)CC1 (stereo not given)
1120	COc1ccc(-c2noc(-c3nc(C(C)C)no3)n2)cc1
1000	O=S(=O)(c1cc(F)ccc1F)N1CCC(c2noc(COCC3CC3)n2)CC1
1220	CCN1C(=O)COc2ccc(-c3noc(-c4ccc(Cl)cc4)n3)cc21
1000	Clc1ccc(-c2nnc(Cc3nc(-c4cccs4)no3)o2)cc1
719	CCCNC(=O)c1cc(C)nc2ccc(Cl)cc12
808	O=C1NC2(CCN(C(=O)Cc3cccc(F)c3)CC2)Nc2cc(Cl)ccc21
611	CCN(CCCNC(=O)C1CCN(c2ncnc3c2oc2ccccc23)CC1)c1ccccc1

RP-LC retention time [s]	Compound
668	COc1ncccc1CNC(=O)NCc1ccc(F)cc1
615	Cc1cc(Cl)ccc1S(=O)(=O)N1CCN(c2nc3ccncc3n(C)c2=O)CC1
856	Cc1ccc(NC(=O)N2CCC(n3cnc4cc(Cl)ccc4c3=O)CC2)cc1
570	COCCn1c(C2CCN(C(=O)Cc3ccc(Cl)cc3)C2)nc2ccncc21 (stereo not given)
1050	O=C(Nc1cc(Cl)ccc1F)c1cnc(-c2ccc(F)cc2)nc1-c1ccncc1
636	Cc1nnc2cc(N3CCN(S(=O)(=O)c4cccs4)CC3)cnn12
584	Cc1ccc(C(=O)NCCn2c(C)cnc2C2CC2)s1
954	O=C(CCN1C(=O)c2ccccc2C1=O)OCC(=O)c1ccc(Cl)cc1Cl
947	CCOc1ccc2nc(C(=O)NCc3ccc(C(F)(F)F)cc3)cn2n1
600	O=C(NC1CC1)c1ccccc1OC1CN(Cc2ccsc2)C1
735	O=C1C(=O)N(Cc2ccc(C(=O)N3CCCCC3)cc2)CCN1Cc1ccc(F)cc1
552	Cn1c(=O)c2c(nc3n(CCN4CCOCC4)c(C(C)(C)C)cn23)n(C)c1=O
643	CCN1CCCC(C(=O)NCc2cccs2)(c2ccccc2)CC1 (stereo not given)
1030	Cc1ccc(S(=O)(=O)Cc2noc(-c3ccc(Br)cc3)n2)cc1
722	O=S(=O)(c1ccc(F)cc1)N1CCC2(CC1)NCCN=C2NCc1ccc(Cl)cc1
959	Cc1noc(C)c1-c1ccc(S(=O)(=O)NC2CCCCC2)cc1
1200	Cc1cc(-c2csc(S(=O)(=O)N3CCN(C(c4ccccc4)c4ccccc4)CC3)c2)on1
736	CCN1C(=O)Cc2cc(C(=O)NC3CCCCC3)ccc21
842	COc1ccc(-c2cc3nn(CC(=O)NC(C)(C)C)c(=O)n3c(C)n2)cc1
1370	CCCCOc1ccc(-c2nc(C3CC(=O)N(c4ccc(F)c(Cl)c4)C3)no2)cc1 (stereo not given)
706	CC(=O)OC1CCN(C(=O)c2cccc(C#N)c2)CC1
727	Cc1cc(NC(=O)Cn2ccn3nc(-c4ccc(F)cc4)c(CO)c3c2=O)no1

RP-LC retention time [s]	Compound
768	Cc1ccsc1C(=O)N1CCC2(CC1)NC(=O)N(Cc1ccccc1)C2=O
785	CCn1c(=O)c(N2CCC(NC(=O)Nc3ccc(OC)c(OC)c3)CC2)nc2ccccc21
704	Cc1ccsc1C(=O)NC1CCN(c2cc(-c3ccccc3)[nH]n2)C1 (stereo not given)
804	Cc1ccccc1OCc1nc(C2CN(C(=O)NC(C)C)C2)no1
622	O=C(Cc1ccc(Br)cc1)N1CCN(C(=O)c2cc(-c3ccncc3)n[nH]2)CC1
550	Cc1nc([C@@H]2CN(C(=O)c3sc(C)nc3C)C[C@H]2C(N)=O)n[nH]1
575	COc1cc(C(=O)N2CCN(c3cc(C)n4cnnc4n3)CC2)cc(OC)c1OC
639	CCNc1cc(N2CCC(CCC(=O)NC(CC)CC)CC2)ncn1
725	CC(NC(=O)c1ccco1)c1nc2ccccc2n1CC(=O)N(c1ccccc1)C(C)C (stereo not given)
718	O=C1COc2cc(S(=O)(=O)N3CCCC3C(=O)NCc3ccccc3)c(Cl)cc2N1 (stereo not given)
739	COCCCNC(=O)N1CCCN(C2=NS(=O)(=O)C(c3ccc(C)c(C)c3)=C2C)CC1
577	COCC(=O)N1CC(c2nnc(C(C)C)o2)C2(CCOCC2)C1 (stereo not given)
898	COc1cccc(CNC(=O)C2(C)CCCN(C(=O)Nc3ccc(C)cc3)C2)c1 (stereo not given)
683	CCOc1ccc(NC(=O)C2CCCN(c3nnc4ccc(Cl)cn34)C2)cc1 (stereo not given)
1190	COC(=O)c1cnc(N2CCN(c3ccc(F)cc3)CC2)c2ccccc12
804	COCCNC(=O)C1CCN(c2nc3ccc(-c4cccc(OC)c4)nc3s2)CC1
690	O=C(Nc1ccc2nc3n(c(=O)c2c1)CCCC3)Nc1ccc(F)cc1F
641	CC(C)S(=O)(=O)c1ccc(Cc2nnc(NC(=O)c3ccc4ncsc4c3)o2)cc1
804	Cc1ccn2cc(C(=O)NC3CCN(Cc4ccccc4)CC3)nc2c1
625	CCn1c(=O)c(C(=O)N2CCN(c3ccccn3)CC2)nc2cc(C)c(C)cc21
578	CC(=O)N1CCc2cc(N3CC(C(=O)N4CCN(C5CCCCC5)CC4)CC3=O)ccc21 (stereo not given)
1300	Cc1sc(C)c(S(=O)(=O)N2CCN(c3ccccc3)CC2)c1-c1cc(C(F)(F)F)on1

RP-LC retention time [s]	Compound
784	COc1ccc(C)cc1NC(=O)C1CCN(C(=O)C(C)(C)C)CC1
603	CC(C)CC(=O)Nc1ccc2nc(N3CCN(Cc4ccccc4F)CC3)cc(C(=O)O)c2c1
1020	Cc1ccc(NC(=O)Nc2nccn(-c3cccc(F)c3)c2=O)cc1C
988	CSc1ccc(-c2noc(-c3nn(-c4cccc(Br)c4)ccc3=O)n2)cc1
598	CCC(C)NC(=O)N1CCn2nnc(CCC(=O)N3CCOCC3)c2C1 (stereo not given)
683	CCCNc1cc(N2CCCC(CCC(=O)NCc3ccc(F)cc3)C2)ncn1 (stereo not given)
958	COc1ccc(C2(C(=O)N3CCC(c4nc(CCOCc5ccccc5)no4)C3)CC2)cc1 (stereo not given)
1000	COc1ccc(CC(=O)N2CCc3cc(-c4ccno4)ccc32)cc1Cl
1030	O=C(Nc1cccc(C(F)(F)F)c1)NC1(c2nc(C3CC3)no2)CCCCC1
661	COc1ccc(-c2nn(-c3ccccc3)cc2C(=O)O)cc1N
957	CN1C(=O)c2ccccc2Oc2ccc(C(=O)NCc3ccc(Cl)cc3)cc21
780	Cc1nn(-c2ccccc2)c2c1N(CC(=O)NC1CCCC1)C(=O)CS2
730	Cn1nc(C(=O)N2CCCC(C(=O)Nc3ccccc3)C2)c2c1CCN(C(=O)c1cccs1)C2 (stereo not given)
678	CCOC(=O)C1CCN(C(=O)Cn2cnc3nc4c(cc3c2=O)CCCC4)CC1
767	N#Cc1ccc(C(=O)N2CCN(c3cc(-c4ccc(F)cc4)[nH]n3)CC2)cc1
734	Cc1ccc(Cn2cc(-c3ccncc3)cc2C(=O)NCc2ccc(C)o2)cc1
622	CCN1CN=C(Nc2nc(C)c3cc(OC)ccc3n2)NC1
1050	COc1cccc(-c2nnc(Cc3nc(-c4cccc(C)c4)no3)o2)c1
764	CCn1c(N2CCCC(C(=O)NCc3cccc(OC)c3)C2)cc(=O)n(C)c1=O (stereo not given)
904	CC(C)c1nnc(-c2coc(S(=O)(=O)N3CCCCC3C)c2)o1 (stereo not given)
763	Cc1ccc(-c2nc(N3CC(C)OC(C)C3)c3ccccc3n2)cc1 (stereo not given)

Compound	RP-LC retention time [s]
O=C(c1cccc(Cn2cncn2)c1)N1CCC2(CC1)OCCO2	607
NC(=O)C(=O)c1cn(Cc2ccccc2)c2ccccc12	872
Cn1c(=O)n(C)c2cc(CNCCc3ccc(Cl)cc3)ccc21	630
